Read-outs that look alike come from different tables or passages of the source. Blank lines part the entries; values can stand above or below the molecule they belong to.
What was measured:
[1] = Study 1: lenalidomide-digoxin pharmacokinetic interaction, double-blind placebo-controlled crossover in healthy subjects; details: for T max: median (range)
Experimental: Study 1 was designed as a double-blind, placebo-controlled, randomized, 2-period, crossover trial. Subjects were randomized to receive either lenalidomide 10 mg/day for 7 days in Study Period 1 and the matching placebo for 7 days in Study Period 2, or to receive the same two treatments in the reverse order. […] A 10-day washout separated the study periods.
For analysis of lenalidomide in plasma and urine, the assay ranges were 5–1,000 and 100–20,000 ng/mL, respectively, and the details of methods were described previously. […] C [2, 3] H7]-temsirolimus were quantitatively extracted from whole blood sample by protein precipitation extraction.
Non-compartmental pharmacokinetic parameters were estimated from drug concentration–time profiles. Major pharmacokinetic parameters included C max, time to reach C max (T max), terminal-phase half-life (t 1/2), AUC from time zero to the last measurable concentration (AUCt), AUC from time zero to infinity (AUC∞), cumulative urinary excretion as a percentage of administered dose (fe), and renal clearance (CLR).
An analysis of variance (ANOVA) was performed on the natural log-transformed pharmacokinetic parameters to estimate the percentage ratio of geometric means between treatments, and the 90 % confidence interval (CI) for key pharmacokinetic parameters.

[2] = Study 2, Part 1: lenalidomide-quinidine pharmacokinetic interaction, open-label crossover in healthy subjects; format: in vivo, human; details: for fe (cumulative urinary excretion as a percentage of administered dose): urine
Experimental: Study 2, Part 1 was designed as an open-label, fixed-sequence, 2-period, crossover trial. In Period 1, subjects received a single oral dose of 25 mg lenalidomide. […] Study periods were separated by a washout of 7–10 days. In both periods, serial blood samples were collected, and urine samples were pooled over specified intervals for up to 48-h post-lenalidomide dosing to determine plasma and urine lenalidomide concentrations.

human P-gp transporters = details: read-out: Ki for inhibiting human P-gp transporters in vitro; cited from earlier work
[3] = Study 2, Part 2: lenalidomide-temsirolimus pharmacokinetic interaction, open-label crossover in healthy subjects; format: in vivo, human; details: for AUC(0-inf) / AUC(0-t) / Cmax / half-life / CL renal / fe (cumulative urinary excretion as a percentage of administered dose): geometric mean (geometric CV %); for Tmax: median (range); for CL renal: plasma and urine, read-out: CLR (renal clearance); for fe (cumulative urinary excretion as a percentage of administered dose): urine
Experimental: Study 2, Part 2 was designed as an open-label, fixed-sequence, 3-period, crossover trial. In Period 1, subjects received a single oral dose of 25 mg lenalidomide; in Period 2, subjects received a single dose of temsirolimus 25 mg via a 30-min intravenous (IV) infusion; and in Period 3, subjects received both a single 25 mg oral dose of lenalidomide and a single 25 mg IV dose of temsirolimus. Pre-treatment with IV diphenhydramine (25 mg) was administered 30 min prior to start of each temsirolimus infusion. There was a 7–10 day washout between Study Periods 1 and 2, and a minimum 14-day washout between Study Periods 2 and 3.

[4] = design: method as in ref 15 = [15]; PMID 21825263; doi:10.1200/JCO.2010.32.4962; 15. Hofmeister CC Yang X Pichiorri F Chen P Rozewski DM Johnson AJ Lee S Liu Z Garr CL Hade EM Ji J Schaaf LJ Benson DM Jr Kraut EH Hicks WJ Chan KK Chen CS Farag SS Grever MR Byrd JC Phelps MA Phase; details: MM patients, cited from earlier work
[5] = Safety evaluation in the phase I studies (AEs, laboratory values, ECG, vital signs); format: in vivo, human; details: lenalidomide given with digoxin, quinidine or temsirolimus vs lenalidomide alone or with placebo
Experimental: Safety was evaluated throughout each study by monitoring AEs, physical examinations, vital signs, clinical laboratory values, and 12-lead electrocardiogram results and was summarized using descriptive statistics.

human P-gp = test system: human P-gp; design: method as in ref 14, 15 = [14]; 14. Kumar GN, Surapaneni S, Lau H, Laskin O, Fox L (2008) Interaction of lenalidomide with human drug transporters in vitro [abstract 381]. ISSX Online Abstracts Supplement 3 (No. 3). Presented at the || [15]; PMID 21825263; doi:10.1200/JCO.2010.32.4962; 15. Hofmeister CC Yang X Pichiorri F Chen P Rozewski DM Johnson AJ Lee S Liu Z Garr CL Hade EM Ji J Schaaf LJ Benson DM Jr Kraut EH Hicks WJ Chan KK Chen CS Farag SS Grever MR Byrd JC Phelps MA Phase; details: monolayers of LLC-PK1 and MDCKII cell lines expressing human P-gp; cited from earlier work
P-gp = details: up to a concentration of 300 μM, P-gp expressing LLC-PK1 cell line; cited from earlier work
[6] = cited from earlier work
[7] = design: method as in PMID 22213235; details: cited from earlier work
CYP3A4 = details: cited from earlier work
[8] = human, temsirolimus 25 mg IV + lenalidomide 25 mg (n = 11), whole blood
[9] = human, temsirolimus 25 mg IV alone (n = 14), whole blood
[10] = human, oral, lenalidomide 25 mg alone (n = 14), plasma, geometric mean (geometric CV %)
[11] = human, oral, lenalidomide 25 mg alone (n = 17), plasma
[12] = human, lenalidomide 25 mg + temsirolimus 25 mg IV (n = 11), plasma

T max ([1]; digoxin 0.5 mg + lenalidomide 10 mg/day (n = 17), plasma): 1.0 (1–3) h | T max ([1]; digoxin 0.5 mg alone (with placebo) (n = 17), plasma): 1.0 (1–3) h | AUC(0-inf) ([1]; human, plasma, oral, 0.5 mg): 26.3 ng·h/mL | AUC(0-t) ([1]; human, plasma, oral, 0.5 mg): 19.1 ng·h/mL | Cmax ([1]; human, plasma, oral, 0.5 mg): 1.69 ng/mL | half-life ([1]; human, plasma, oral, 0.5 mg): 32.3 h
SMILES: C[C@H]1O[C@@H](O[C@H]2[C@@H](O)C[C@H](O[C@H]3[C@@H](O)C[C@H](O[C@H]4CC[C@@]5(C)[C@H](CC[C@@H]6[C@@H]5C[C@@H](O)[C@]5(C)[C@@H](C7=CC(=O)OC7)CC[C@]65O)C4)O[C@@H]3C)O[C@@H]2C)C[C@H](O)[C@@H]1O [Digoxin]

Estimated mean C max for unbound quinidine ([2]; assuming 15 % of unbound drug): approximately 1 μM | Cmax ([2]; human, oral, 600 mg twice daily, plasma, Day 4, CV % 24.3): 2350 ng/mL | Mean quinidine trough concentration ([2]; plasma, Days 4–5, quinidine sulfate 600 mg twice daily): 1,705 ng/mL
SMILES: C=C[C@H]1C[N@@]2CC[C@H]1C[C@@H]2[C@@H](O)c1ccnc2ccc(OC)cc12 [Quinidine]
Ki (human P-gp transporters): 900 nM

AUC(0-inf) [3, 8]: 2710 ng·h/mL | AUC(0-t) [3, 8]: 2570 ng·h/mL | Cmax [3, 8]: 649 ng/mL | half-life [3, 8]: 15.2 h | Tmax [3, 8]: 0.47 h | AUC(0-inf) [3, 9]: 2800 ng·h/mL | AUC(0-t) [3, 9]: 2670 ng·h/mL | Cmax [3, 9]: 586 ng/mL | half-life [3, 9]: 15.3 h | Tmax [3, 9]: 0.47 h
SMILES: CO[C@H]1C[C@@H]2CC[C@@H](C)[C@@](O)(O2)C(=O)C(=O)N2CCCC[C@H]2C(=O)O[C@H]([C@H](C)C[C@@H]2CC[C@@H](OC(=O)C(C)(CO)CO)[C@H](OC)C2)CC(=O)[C@H](C)/C=C(\C)[C@@H](O)[C@@H](OC)C(=O)[C@H](C)C[C@H](C)/C=C/C=C/C=C/1C [Temsirolimus]
90 % CIs for the ratio of geometric means, temsirolimus alone vs temsirolimus plus lenalidomide, for C max and AUCt ([3]; human, in vivo): completely contained within the limits l of 80 and 125% | C max and AUC of temsirolimus with increasing doses of lenalidomide ([4]; temsirolimus 15 mg/day, lenalidomide 15–25 mg/day): increase

Median time of observed Cmax of lenalidomide ([1]; human, in vivo): 0.5 to 1 h | AUC(0-inf) ([1]; human, in vivo, 10 mg): 475 ng·h/mL | AUC(0-t) ([1]; human, in vivo, 10 mg): 396 ng·h/mL | Cmax ([1]; human, in vivo, 10 mg): 119 ng/mL | Tmax ([1]; human, in vivo, 10 mg): 1 h | half-life ([1]; human, in vivo, 10 mg): 2.4 h | AUC(0-inf) [2, 10]: 1360 ng·h/mL | AUC(0-t) [2, 10]: 1290 ng·h/mL | half-life [2, 10]: 2.81 h | Cmax ([2]; human, oral, lenalidomide 25 mg alone (n = 14), plasma, geometric mean (geometric CV %), read-out: Cmax): 367 ng/mL | Tmax ([2]; human, oral, lenalidomide 25 mg alone (n = 14), plasma, median (range)): 1 h | CL renal ([2]; human, plasma and urine, oral, lenalidomide 25 mg alone (n = 14), geometric mean (geometric CV %), read-out: CLR (renal clearance)): 227 mL/min | fe (cumulative urinary excretion as a percentage of administered dose) ([2]; lenalidomide 25 mg + quinidine (n = 14), geometric mean (geometric CV %)): 70.2 (6.6) % dose | fe (cumulative urinary excretion as a percentage of administered dose) ([2]; lenalidomide 25 mg alone (n = 14), geometric mean (geometric CV %)): 74.2 (11.4) % dose | Time by which urinary excretion of unchanged lenalidomide was nearly complete ([2]; post-dose, under all treatment conditions (alone, + quinidine, + temsirolimus)): ≤ 12 h | AUC(0-inf) [3, 11]: 1350 ng·h/mL | AUC(0-t) [3, 11]: 1280 ng·h/mL | Cmax [3, 11]: 364 ng/mL | half-life [3, 11]: 2.81 h | Tmax [3, 11]: 0.5 h | CL renal ([3]; human, oral, lenalidomide 25 mg alone (n = 17)): 251 mL/min | CL renal ([3]; human, lenalidomide 25 mg + temsirolimus 25 mg IV (n = 11)): 229 mL/min | AUC(0-inf) [3, 12]: 1440 ng·h/mL | AUC(0-t) [3, 12]: 1370 ng·h/mL | Cmax [3, 12]: 361 ng/mL | half-life [3, 12]: 2.69 h | Tmax [3, 12]: 1 h | fe (cumulative urinary excretion as a percentage of administered dose) ([3]; lenalidomide 25 mg + temsirolimus 25 mg IV (n = 11)): 79.6 (8.0) % dose | fe (cumulative urinary excretion as a percentage of administered dose) ([3]; lenalidomide 25 mg alone (n = 17)): 81.0 (10.0) % dose
SMILES: Nc1cccc2c1CN(C1CCC(=O)NC1=O)C2=O (stereo not shown) [Lenalidomide]
90 % CIs for the ratio of geometric means, lenalidomide alone vs plus an interacting drug, for Cmax and AUC in plasma ([1]; human, in vivo): completely contained within the limits of 80 and 125% | 90 % CIs for the ratio of geometric means, lenalidomide alone vs plus an interacting drug, for renal clearance ([2]; interacting drug quinidine or temsirolimus (Study 2)): completely contained within the limits of 80 and 125% | Number of subjects reporting AEs, or number of AEs reported [5]: no apparent increase | Efflux ratio (human P-gp): approximately 3 | Inhibition of P-gp-dependent transport of digoxin (P-gp): did not inhibit | Absorption after oral administration [6]: > 90% | Administered dose eliminated by renal excretion of the unchanged drug [6]: Approximately 80% | Bioavailability ([6]; known high bioavailability): > 90% | Lenalidomide AUC with itraconazole relative to other MM patients receiving lenalidomide alone ([7]; MM patient, lenalidomide 10 mg/day + itraconazole 100 mg/day vs lenalidomide 25 mg/day alone): 12 fold | Elimination half-life (t 1/2) ([7]; with itraconazole): 5.5 h | Elimination half-life (t 1/2) ([7]; without itraconazole): 6.7 h | C max and AUC of lenalidomide with increasing doses of temsirolimus ([4]; lenalidomide 25 mg/day, temsirolimus 15–20 mg/day): increase | CYP3A4 substrate, inhibitor or inducer status (CYP3A4): not a substrate, inhibitor, or inducer of CYP3A4
